According to ChEMBL document CHEMBL1143632, “Ligand-based prediction of active conformation by 3D-QSAR flexibility descriptors and their application in 3+3D-QSAR models” (J Med Chem, 2005):
Where a SMILES comes first, the peptide text is derived from it. [ ]: non-standard residue; d: D form. Dmt = Cc1cc(O)cc(C)c1C[C@H](N)C(=O)O

Species: Rattus norvegicus
Experiment: Antinidatory effect was determined in rat
Format: functional
Parameters: unit not given here

Row | SMILES | Log ED50
1 | CCCCCOC[C@H](O)/C=C/[C@@H]1[C@@H](C/C=C\CCCC(=O)O)[C@@H](O)C[C@H]1O | 1
2 | O=C(O)/C=C/C/C=C\C[C@@H]1[C@@H](/C=C/[C@@H](O)COc2cccc(C(F)(F)F)c2)[C@H](O)C[C@@H]1O | 2
3 | CCCOCCC[C@H](O)/C=C/[C@@H]1[C@@H](C/C=C\CCCC(=O)O)[C@@H](O)C[C@H]1O | -0.602
4 | CCCC(C)(C)C[C@H](O)/C=C/[C@@H]1[C@@H](C/C=C\CCCC(=O)O)[C@@H](O)C[C@H]1O | 0.279
5 | O=C(O)/C=C/C=C/C=C/[C@@H]1[C@@H](/C=C/[C@@H](O)COc2ccccc2)[C@H](O)C[C@@H]1O | 0.699
6 | O=C(O)/C=C/C=C/CC[C@@H]1[C@@H](/C=C/[C@@H](O)COc2cccc(Cl)c2)[C@H](O)C[C@@H]1O | 0.777
7 | CCCCCCC[C@H](O)/C=C/[C@@H]1[C@@H](C/C=C\CCCC(=O)O)[C@@H](O)C[C@H]1O | 0.669
8 | O=C(O)CCC/C=C\C[C@@H]1[C@@H](/C=C/[C@@H](O)C#Cc2cccs2)[C@H](O)C[C@@H]1O | 0.602
9 | O=C(O)/C=C/C=C/C=C/[C@@H]1[C@@H](/C=C/[C@@H](O)COc2cccc(Cl)c2)[C@H](O)C[C@@H]1O | 0.699
10 | O=C(O)/C=C/C/C=C/C[C@@H]1[C@@H](/C=C/[C@@H](O)COc2cccc(Cl)c2)[C@H](O)C[C@@H]1O | 2
11 | O=C(O)CCC/C=C\C[C@@H]1[C@@H](/C=C/[C@@H](O)C#Cc2ccccc2)[C@H](O)C[C@@H]1O | 1.699
12 | O=C(O)/C=C/C/C=C\C[C@@H]1[C@@H](/C=C/[C@@H](O)COc2ccccc2)[C@H](O)C[C@@H]1O | 2.481
13 | O=C(O)CCC/C=C\C[C@@H]1[C@@H](/C=C/[C@@H](O)C#CC2CCCCC2)[C@H](O)C[C@@H]1O | 1.959
14 | O=C(O)CC/C=C\CC[C@@H]1[C@@H](/C=C/[C@@H](O)CCc2ccccc2)[C@H](O)C[C@@H]1O | 2.301
15 | O=C(O)C/C=C/C=C/C[C@@H]1[C@@H](/C=C/[C@@H](O)COc2ccccc2)[C@H](O)C[C@@H]1O | 1.699
16 | O=C(O)/C=C/CCCC[C@@H]1[C@@H](/C=C/[C@@H](O)COc2cccc(C(F)(F)F)c2)[C@H](O)C[C@@H]1O | 0.602
17 | CCCCC(C)(C)[C@H](O)/C=C/[C@@H]1[C@@H](C/C=C\CCCC(=O)O)[C@@H](O)C[C@H]1O | 0.081
18 | O=C(O)/C=C/C/C=C\C[C@@H]1[C@@H](/C=C/[C@@H](O)COc2cccc(Cl)c2)[C@H](O)C[C@@H]1O | 2.301

Row | SMILES | Log ED50
19 | O=C(O)CCC/C=C\C[C@@H]1[C@@H](/C=C/[C@@H](O)C#Cc2ccco2)[C@H](O)C[C@@H]1O | 0
20 | CCC(C)(C)CC[C@H](O)/C=C/[C@@H]1[C@@H](C/C=C\CCCC(=O)O)[C@@H](O)C[C@H]1O | 0.664
21 | COCCCCC[C@H](O)/C=C/[C@@H]1[C@@H](C/C=C\CCCC(=O)O)[C@@H](O)C[C@H]1O | 0.398
22 | O=C(O)/C=C/C/C=C\C[C@@H]1[C@@H](/C=C/[C@@H](O)COc2ccc(Cl)cc2)[C@H](O)C[C@@H]1O | 2
23 | CCCCCCOC[C@H](O)/C=C/[C@@H]1[C@@H](C/C=C\CCCC(=O)O)[C@@H](O)C[C@H]1O | 0.699
24 | CCOCCCC[C@H](O)/C=C/[C@@H]1[C@@H](C/C=C\CCCC(=O)O)[C@@H](O)C[C@H]1O | 0.699
25 | O=C(O)C/C=C/C=C\C[C@@H]1[C@@H](/C=C/[C@@H](O)COc2cccc(Cl)c2)[C@H](O)C[C@@H]1O | 2.886
26 | O=C(O)CCC/C=C\C[C@@H]1[C@@H](/C=C/[C@@H](O)COc2ccc(F)cc2)[C@H](O)C[C@@H]1O | 2.301
27 | O=C(O)CCC/C=C\C[C@@H]1[C@@H](/C=C/[C@@H](O)c2ccc(C(F)(F)F)cc2)[C@H](O)C[C@@H]1O | 1.699
28 | CCCCOC[C@H](O)/C=C/[C@@H]1[C@@H](C/C=C\CCCC(=O)O)[C@@H](O)C[C@H]1O | 1
29 | CCCOC[C@H](O)/C=C/[C@@H]1[C@@H](C/C=C\CCCC(=O)O)[C@@H](O)C[C@H]1O | 0.398
30 | O=C(O)CCC/C=C/C[C@@H]1[C@@H](/C=C/[C@@H](O)C2CC2c2ccccc2)[C@H](O)C[C@@H]1O (stereo not given in full) | 1.398
31 | CCCCOCC[C@H](O)/C=C/[C@@H]1[C@@H](C/C=C\CCCC(=O)O)[C@@H](O)C[C@H]1O | -0.301
32 | O=C(O)/C=C\CCCC[C@@H]1[C@@H](/C=C/[C@@H](O)COc2cccc(C(F)(F)F)c2)[C@H](O)C[C@@H]1O | 0.482
33 | COc1cccc(C#C[C@H](O)/C=C/[C@@H]2[C@@H](CCCCCCC(=O)O)[C@@H](O)C[C@H]2O)c1 | 2
34 | O=C(O)CCC/C=C\C[C@@H]1[C@@H](/C=C/[C@@H](O)/C=C/c2ccccc2)[C@H](O)C[C@@H]1O | -0.602
35 | O=C(O)C/C=C/C=C\C[C@@H]1[C@@H](/C=C/[C@@H](O)COc2ccccc2)[C@H](O)C[C@@H]1O | 0

The compounds below were run against Mu-type opioid receptor (Mus musculus, UniProt P42866) (assay: Inhibition of DAMGO (Tyr-[D-Ala]-Gly-[NMe-Phe]-Gly-ol) binding to mouse brain mu opioid receptor).
Chain of Mu-type opioid receptor (Mus musculus, UniProt P42866) (P42866 whole entry): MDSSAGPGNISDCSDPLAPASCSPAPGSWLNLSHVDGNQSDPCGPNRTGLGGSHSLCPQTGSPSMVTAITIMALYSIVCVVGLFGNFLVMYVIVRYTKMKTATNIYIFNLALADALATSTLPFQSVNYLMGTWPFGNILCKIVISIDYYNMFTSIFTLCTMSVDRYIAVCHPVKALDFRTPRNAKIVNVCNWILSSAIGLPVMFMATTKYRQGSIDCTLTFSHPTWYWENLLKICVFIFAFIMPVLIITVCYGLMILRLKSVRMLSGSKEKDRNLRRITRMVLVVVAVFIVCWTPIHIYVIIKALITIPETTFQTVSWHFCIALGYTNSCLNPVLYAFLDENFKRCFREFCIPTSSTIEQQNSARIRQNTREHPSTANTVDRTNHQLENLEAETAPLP

Row | SMILES | Ki [nM]
36 | NC(=O)[C@H](Cc1ccccc1)NC(=O)[C@H](Cc1ccccc1)NC(=O)[C@H]1Cc2ccccc2[C@H]1NC(=O)[C@@H](N)Cc1ccc(O)cc1 | 241
37 | NC(=O)[C@H](Cc1ccccc1)NC(=O)[C@@H]1Cc2ccccc2[C@@H]1NC(=O)[C@@H]1CCCN1C(=O)[C@@H](N)Cc1ccc(O)cc1 | 298
38 | NC(=O)[C@H](Cc1ccccc1)NC(=O)[C@H](Cc1ccccc1)NC(=O)[C@@H]1Cc2ccccc2[C@@H]1NC(=O)[C@@H](N)Cc1ccc(O)cc1 | 1000
39 | NC(=O)[C@H](Cc1ccccc1)NC(=O)[C@H]1Cc2ccccc2[C@H]1NC(=O)[C@@H]1CCCN1C(=O)[C@@H](N)Cc1ccc(O)cc1 | 128

The compounds below were run against T1, Mu-type opioid receptor (Rattus norvegicus, UniProt P33535) (assay: Inhibition of DAMGO (Tyr-[D-Ala]-Gly-[NMe-Phe]-Gly-ol) binding to rat brain mu opioid receptor).
T1 sequence (P33535 whole entry): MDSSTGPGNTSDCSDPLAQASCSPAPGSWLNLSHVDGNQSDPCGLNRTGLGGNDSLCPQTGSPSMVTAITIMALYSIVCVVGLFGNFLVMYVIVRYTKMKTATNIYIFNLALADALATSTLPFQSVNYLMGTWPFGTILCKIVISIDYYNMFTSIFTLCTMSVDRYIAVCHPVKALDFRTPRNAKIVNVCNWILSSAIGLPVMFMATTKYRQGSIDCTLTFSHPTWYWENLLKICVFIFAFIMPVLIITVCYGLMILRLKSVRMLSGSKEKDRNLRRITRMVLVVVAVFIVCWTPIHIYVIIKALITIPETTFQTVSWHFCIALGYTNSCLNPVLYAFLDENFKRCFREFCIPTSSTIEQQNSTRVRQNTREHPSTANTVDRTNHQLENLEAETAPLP

Row | SMILES | Ki [nM]
40 | C[C@@H](NC(=O)[C@@H](N)Cc1ccc(O)cc1)C(=O)N[C@@H](Cc1ccccc1)C(=O)NC(Cc1ccccc1)C(N)=O (single isomer, unassigned) | 0.31
41 | Cc1cc(O)cc(C)c1C[C@H](N)C(=O)N1CCC[C@H]1C(=O)N[C@@H](Cc1ccccc1)C(=O)N[C@@H](Cc1c[nH]c2ccccc12)C(N)=O (H-[Dmt]PFW-NH2) | 0.014
42 | NC(=O)[C@H](Cc1c[nH]c2ccccc12)NC(=O)[C@H](Cc1ccccc1)NC(=O)[C@@H]1CCCN1C(=O)[C@@H](N)Cc1ccc(O)cc1 (H-YPFW-NH2) | 4.21
43 | NC(=O)[C@@H]1CCCN1C(=O)[C@H](Cc1ccccc1)NC(=O)[C@@H]1CCCN1C(=O)[C@@H](N)Cc1ccc(O)cc1 [MORPHICEPTIN] (H-YPFP-NH2) | 80
44 | Cc1cc(O)cc(C)c1C[C@H](N)C(=O)N1CCC[C@H]1C(=O)N[C@@H](Cc1ccccc1)C(=O)N[C@H](C(N)=O)[C@@H](C)c1ccccc1 | 0.35
45 | NC(=O)C(Cc1ccccc1)NC(=O)[C@H](Cc1ccccc1)NC(=O)[C@H]1Cc2ccccc2CN1C(=O)[C@@H](N)Cc1ccc(O)cc1 (single isomer, unassigned) | 167
46 | Cc1cc(O)cc(C)c1C[C@H](N)C(=O)N1CCC[C@H]1C(=O)N[C@@H](Cc1ccccc1)C(=O)N[C@@H](Cc1ccccc1)C(N)=O | 0.21

What follows are compounds tested against T1, Mu-type opioid receptor (assay: Inhibition of DAMGO (Tyr-[D-Ala]-Gly-[NMe-Phe]-Gly-ol) binding torat brain mu opioid receptor).

Row | SMILES | Ki [nM]
47 | C[C@H](c1ccccc1)[C@@H](NC(=O)[C@H](Cc1ccccc1)NC(=O)[C@@H]1CCCN1C(=O)[C@@H](N)Cc1ccc(O)cc1)C(N)=O | 45.3

These compounds were tested against T1, Mu-type opioid receptor (assay: Inhibition of DAMGO (Tyr-[D-Ala]-Gly-[NMe-Phe]-Gly-ol) binding to rat brain opioid receptor).

Row | SMILES | Ki [nM]
48 | C[C@@H](c1ccccc1)[C@H](NC(=O)[C@H](Cc1ccccc1)NC(=O)[C@@H]1CCCN1C(=O)[C@@H](N)Cc1ccc(O)cc1)C(N)=O | 0.8
49 | C[C@H](c1ccccc1)[C@H](NC(=O)[C@H](Cc1ccccc1)NC(=O)[C@@H]1CCCN1C(=O)[C@@H](N)Cc1ccc(O)cc1)C(N)=O | 26.3
50 | C[C@@H](c1ccccc1)[C@@H](NC(=O)[C@H](Cc1ccccc1)NC(=O)[C@@H]1CCCN1C(=O)[C@@H](N)Cc1ccc(O)cc1)C(N)=O | 107
